Tested on: 967376-340-R-J2-PDC multicell spheroid viability
Experiment: Anticancer human tumor 967376-340-R-J2-PDC patient-derived colon adenocarcinoma cell line growth inhibition [PI3K]
Settings: for IC50: curve of first compound; for viability, T/C: stronger effect = lower value
How it was run: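 High-throughput combination screen: PI3K inhibitors crossed with targeted small molecules on complex spheroids of tumor cells, HUVEC and MSCs at 37 degrees C, 5% CO2. Top concentration was at or near clinical Cmax (otherwise 10 microM), with half-log decrements.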

[1] = second compound 0.0316 µM, first compound 0.0316 µM
[2] = second compound 0.0316 µM, first compound 0.1 µM
[3] = second compound 0.0316 µM, first compound 0.316 µM
[4] = second compound 0.0316 µM, first compound 1 µM
[5] = second compound 0.0316 µM, first compound 3.16 µM
[6] = second compound 0.0316 µM, first compound 10 µM
[7] = second compound 0.1 µM, first compound 0.0316 µM
[8] = second compound 0.1 µM, first compound 0.1 µM
[9] = second compound 0.1 µM, first compound 0.316 µM
[10] = second compound 0.1 µM, first compound 1 µM
[11] = second compound 0.1 µM, first compound 3.16 µM
[12] = second compound 0.1 µM, first compound 10 µM
[13] = second compound 0.316 µM, first compound 0.0316 µM
[14] = second compound 0.316 µM, first compound 0.1 µM
[15] = second compound 0.316 µM, first compound 0.316 µM
[16] = second compound 0.316 µM, first compound 1 µM
[17] = second compound 0.316 µM, first compound 3.16 µM
[18] = second compound 0.316 µM, first compound 10 µM
[19] = second compound 1 µM, first compound 0.0316 µM
[20] = second compound 1 µM, first compound 0.1 µM
[21] = second compound 1 µM, first compound 0.316 µM
[22] = second compound 1 µM, first compound 1 µM
[23] = second compound 1 µM, first compound 3.16 µM
[24] = second compound 1 µM, first compound 10 µM
[25] = second compound 3.16 µM, first compound 0.0316 µM
[26] = second compound 3.16 µM, first compound 0.1 µM
[27] = second compound 3.16 µM, first compound 0.316 µM
[28] = second compound 3.16 µM, first compound 1 µM
[29] = second compound 3.16 µM, first compound 3.16 µM
[30] = second compound 3.16 µM, first compound 10 µM
[31] = second compound 10 µM, first compound 0.0316 µM
[32] = second compound 10 µM, first compound 0.1 µM
[33] = second compound 10 µM, first compound 0.316 µM
[34] = second compound 10 µM, first compound 1 µM
[35] = second compound 10 µM, first compound 3.16 µM
[36] = second compound 10 µM, first compound 10 µM
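Also: spheroids exposed to agents for 7 days before read-out.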
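For viability, T/C in this document: luminescence used as surrogate of cell viability.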

Q: What does the source list for `CC1(C)CCC(CN2CCN(c3ccc(C(=O)NS(=O)(=O)c4ccc(NCC5CCOCC5)c([N+](=O)[O-])c4)c(Oc4cnc5[nH]ccc5c4)c3)CC2)=C(c2ccc(Cl)cc2)C1` + Cc1nc(NC(=O)N2CCCC2C(N)=O)sc1-c1ccnc(C(C)(C)C(F)(F)F)c1?
A: IC50 (second compound 0.0316 µM): > 10 µM; IC50 (second compound 0.1 µM): 8.83 µM; IC50 (second compound 0.316 µM): 8.52 µM; IC50 (second compound 1 µM): > 10 µM; IC50 (second compound 3.16 µM): 4.67 µM; IC50 (second compound 10 µM): 2.63 µM; viability, T/C [1]: 103%; viability, T/C [2]: 91.3%; viability, T/C [3]: 88.8%; viability, T/C [4]: 86%; viability, T/C [5]: 104%; viability, T/C [6]: 55.1%; viability, T/C [7]: 88.9%; viability, T/C [8]: 83.6%; viability, T/C [9]: 86.4%; viability, T/C [10]: 86.8%; viability, T/C [11]: 77.8%; viability, T/C [12]: 46.5%; viability, T/C [13]: 88.2%; viability, T/C [14]: 76.8%; viability, T/C [15]: 73%; viability, T/C [16]: 66.1%; viability, T/C [17]: 75.9%; viability, T/C [18]: 46%; viability, T/C [19]: 86.1%; viability, T/C [20]: 73.3%; viability, T/C [21]: 72.1%; viability, T/C [22]: 61.5%; viability, T/C [23]: 69.2%; viability, T/C [24]: 52.3%; viability, T/C [25]: 57.1%; viability, T/C [26]: 71.8%; viability, T/C [27]: 63%; viability, T/C [28]: 60.5%; viability, T/C [29]: 59%; viability, T/C [30]: 33.4%; viability, T/C [31]: 63.9%; viability, T/C [32]: 50.3%; viability, T/C [33]: 62.7%; viability, T/C [34]: 48.8%; viability, T/C [35]: 53%; viability, T/C [36]: 38.6%

Q: With `C[C@@H](NC(=O)c1ncnc(N)c1Cl)c1ncc(C(=O)Nc2cc(C(F)(F)F)c(Cl)cn2)s1` + Cc1nc(NC(=O)N2CCCC2C(N)=O)sc1-c1ccnc(C(C)(C)C(F)(F)F)c1 as the compound, how does the IC50 (second compound 0.0316 µM) read?
A: > 10 µM

Q: And the IC50 (second compound 0.1 µM)?
A: > 10 µM

Q: And the IC50 (second compound 0.316 µM)?
A: > 10 µM

Q: And the IC50 (second compound 1 µM)?
A: > 10 µM

Q: What about the IC50 (second compound 3.16 µM) of the same compound?
A: > 10 µM

Q: What about the IC50 (second compound 10 µM) of the same compound?
A: > 10 µM

Q: What about the viability, T/C [1] of the same compound?
A: 87.1%

Q: And the viability, T/C [2]?
A: 88.3%

Q: What about the viability, T/C [3] of the same compound?
A: 84.6%

Q: And the viability, T/C [4]?
A: 105%

Q: And the viability, T/C [5]?
A: 94.2%

Q: And the viability, T/C [6]?
A: 100%

Q: What about the viability, T/C [7] of the same compound?
A: 105%

Q: And the viability, T/C [8]?
A: 77.1%

Q: And the viability, T/C [9]?
A: 85.4%

Q: What about the viability, T/C [10] of the same compound?
A: 96.7%

Q: What about the viability, T/C [11] of the same compound?
A: 98.3%

Q: And the viability, T/C [12]?
A: 97.6%

Q: What about the viability, T/C [13] of the same compound?
A: 65.6%

Q: What about the viability, T/C [14] of the same compound?
A: 100%

Q: What about the viability, T/C [15] of the same compound?
A: 68%

Q: And the viability, T/C [16]?
A: 99.7%

Q: And the viability, T/C [17]?
A: 89.7%

Q: And the viability, T/C [18]?
A: 78.7%

Q: And the viability, T/C [19]?
A: 72.8%

Q: What about the viability, T/C [20] of the same compound?
A: 80.4%

Q: And the viability, T/C [21]?
A: 79.6%

Q: What about the viability, T/C [22] of the same compound?
A: 70.1%

Q: And the viability, T/C [23]?
A: 96.6%

Q: What about the viability, T/C [24] of the same compound?
A: 76%

Q: And the viability, T/C [25]?
A: 55%

Q: What about the viability, T/C [26] of the same compound?
A: 71%

Q: And the viability, T/C [27]?
A: 71.9%

Q: What about the viability, T/C [28] of the same compound?
A: 74%

Q: What about the viability, T/C [29] of the same compound?
A: 69.4%

Q: And the viability, T/C [30]?
A: 68.2%

Q: And the viability, T/C [31]?
A: 56.4%

Q: And the viability, T/C [32]?
A: 59.9%

Q: And the viability, T/C [33]?
A: 62.1%

Q: What about the viability, T/C [34] of the same compound?
A: 54%

Q: And the viability, T/C [35]?
A: 61.8%

Q: What about the viability, T/C [36] of the same compound?
A: 54.5%

Q: With `Cn1ncnc1[C@H]1c2n[nH]c(=O)c3cc(F)cc(c23)N[C@@H]1c1ccc(F)cc1` + Cc1nc(NC(=O)N2CCCC2C(N)=O)sc1-c1ccnc(C(C)(C)C(F)(F)F)c1 as the compound, how does the IC50 (second compound 0.0316 µM) read?
A: > 0.1 µM

Q: What about the IC50 (second compound 0.1 µM) of the same compound?
A: > 0.1 µM

Q: What about the IC50 (second compound 0.316 µM) of the same compound?
A: > 0.1 µM

Q: And the IC50 (second compound 1 µM)?
A: > 0.1 µM

Q: What about the IC50 (second compound 3.16 µM) of the same compound?
A: > 0.1 µM

Q: And the IC50 (second compound 10 µM)?
A: 0.0218 µM

Q: What about the viability, T/C (second compound 0.0316 µM, first compound 0.000316 µM) of the same compound?
A: 85.9%

Q: What about the viability, T/C (second compound 0.0316 µM, first compound 0.001 µM) of the same compound?
A: 84.8%

Q: What about the viability, T/C (second compound 0.0316 µM, first compound 0.00316 µM) of the same compound?
A: 83%

Q: What about the viability, T/C (second compound 0.0316 µM, first compound 0.01 µM) of the same compound?
A: 79.5%

Q: And the viability, T/C [1]?
A: 109%

Q: And the viability, T/C [2]?
A: 86.2%

Q: What about the viability, T/C (second compound 0.1 µM, first compound 0.000316 µM) of the same compound?
A: 104%

Q: What about the viability, T/C (second compound 0.1 µM, first compound 0.001 µM) of the same compound?
A: 69.8%

Q: And the viability, T/C (second compound 0.1 µM, first compound 0.00316 µM)?
A: 77.9%

Q: What about the viability, T/C (second compound 0.1 µM, first compound 0.01 µM) of the same compound?
A: 92.8%

Q: And the viability, T/C [7]?
A: 82.6%

Q: What about the viability, T/C [8] of the same compound?
A: 82.1%

Q: What about the viability, T/C (second compound 0.316 µM, first compound 0.000316 µM) of the same compound?
A: 70.7%

Q: What about the viability, T/C (second compound 0.316 µM, first compound 0.001 µM) of the same compound?
A: 69%

Q: What about the viability, T/C (second compound 0.316 µM, first compound 0.00316 µM) of the same compound?
A: 50.6%

Q: And the viability, T/C (second compound 0.316 µM, first compound 0.01 µM)?
A: 76.6%

Q: What about the viability, T/C [13] of the same compound?
A: 71.3%

Q: What about the viability, T/C [14] of the same compound?
A: 67.8%

Q: And the viability, T/C (second compound 1 µM, first compound 0.000316 µM)?
A: 58.9%

Q: What about the viability, T/C (second compound 1 µM, first compound 0.001 µM) of the same compound?
A: 71.8%

Q: What about the viability, T/C (second compound 1 µM, first compound 0.00316 µM) of the same compound?
A: 71.8%

Q: And the viability, T/C (second compound 1 µM, first compound 0.01 µM)?
A: 67%

Q: And the viability, T/C [19]?
A: 55.1%

Q: And the viability, T/C [20]?
A: 60.3%

Q: And the viability, T/C (second compound 3.16 µM, first compound 0.000316 µM)?
A: 51%

Q: What about the viability, T/C (second compound 3.16 µM, first compound 0.001 µM) of the same compound?
A: 65.9%

Q: What about the viability, T/C (second compound 3.16 µM, first compound 0.00316 µM) of the same compound?
A: 65.5%

Q: What about the viability, T/C (second compound 3.16 µM, first compound 0.01 µM) of the same compound?
A: 68.9%

Q: What about the viability, T/C [25] of the same compound?
A: 62.4%

Q: And the viability, T/C [26]?
A: 56%

Q: What about the viability, T/C (second compound 10 µM, first compound 0.000316 µM) of the same compound?
A: 48.2%

Q: What about the viability, T/C (second compound 10 µM, first compound 0.001 µM) of the same compound?
A: 71.1%

Q: And the viability, T/C (second compound 10 µM, first compound 0.00316 µM)?
A: 51.5%

Q: What about the viability, T/C (second compound 10 µM, first compound 0.01 µM) of the same compound?
A: 38.8%

Q: What about the viability, T/C [31] of the same compound?
A: 50.8%

Q: And the viability, T/C [32]?
A: 51.7%

From PubChem BioAssay AID1963962 (Molecular Pharmacology Branch, DTP, NCI, 2024)
